Source: ChEMBL document CHEMBL3596162, “Biaryls as potent, tunable dual neurokinin 1 receptor antagonists and serotonin transporter inhibitors” (Bioorg Med Chem Lett, 2015)

What was measured:
[1] = test system: HEK293; test: Selectivity index, ratio of IC50 for gerbil SERT expressed in HEK293 cell membranes to IC50 for gerbil NK1 receptor expressed in HEK293 cell membranes; assay type: cell-based; settings: Gerbillinae
[2] = Displacement of [3H]-citalopram from gerbil SERT expressed in HEK293 cell membranes incubated for 60 mins by liquid scintillation counting method; parameters: species or system Gerbillinae
[3] = target: Substance-P receptor (Meriones unguiculatus, UniProt Q5DUB1); test: Displacement of [125I]-substance P from gerbil NK1 receptor expressed in HEK293 cell membranes incubated for 30 mins by liquid scintillation counting method; parameters: species or system Gerbillinae
Chain of Substance-P receptor (Meriones unguiculatus, UniProt Q5DUB1) (Q5DUB1 whole entry): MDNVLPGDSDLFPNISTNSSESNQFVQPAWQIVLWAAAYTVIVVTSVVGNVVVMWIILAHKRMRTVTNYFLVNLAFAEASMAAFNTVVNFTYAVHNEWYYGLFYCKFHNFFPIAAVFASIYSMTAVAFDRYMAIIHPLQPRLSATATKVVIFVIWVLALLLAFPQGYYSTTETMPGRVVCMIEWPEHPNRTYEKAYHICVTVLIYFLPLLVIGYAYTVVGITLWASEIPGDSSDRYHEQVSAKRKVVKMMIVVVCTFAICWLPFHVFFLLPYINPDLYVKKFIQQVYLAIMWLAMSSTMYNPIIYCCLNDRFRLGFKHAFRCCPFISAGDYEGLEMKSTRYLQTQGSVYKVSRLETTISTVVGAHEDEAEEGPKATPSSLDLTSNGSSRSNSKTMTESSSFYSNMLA

[4] = Drug concentration in brain of gerbil foot tap model at 10 mg/kg, po; assay type: ADME, organism-based; settings: gerbillinae, in vivo, read-out: Drug uptake
[5] = test system: Gerbillinae; test: In-vivo receptor occupancy at SERT in gerbil at 3 mg/kg, po measured after 4 hrs; assay type: functional
[6] = Plasma concentration in gerbil foot tap model at 10 mg/kg, po; assay type: ADME, organism-based; settings: gerbillinae, in vivo
[7] = target: Substance-P receptor (Homo sapiens, UniProt P25103); test: Binding affinity to human NK1 receptor
Chain of Substance-P receptor (Homo sapiens, UniProt P25103) (P25103 whole entry): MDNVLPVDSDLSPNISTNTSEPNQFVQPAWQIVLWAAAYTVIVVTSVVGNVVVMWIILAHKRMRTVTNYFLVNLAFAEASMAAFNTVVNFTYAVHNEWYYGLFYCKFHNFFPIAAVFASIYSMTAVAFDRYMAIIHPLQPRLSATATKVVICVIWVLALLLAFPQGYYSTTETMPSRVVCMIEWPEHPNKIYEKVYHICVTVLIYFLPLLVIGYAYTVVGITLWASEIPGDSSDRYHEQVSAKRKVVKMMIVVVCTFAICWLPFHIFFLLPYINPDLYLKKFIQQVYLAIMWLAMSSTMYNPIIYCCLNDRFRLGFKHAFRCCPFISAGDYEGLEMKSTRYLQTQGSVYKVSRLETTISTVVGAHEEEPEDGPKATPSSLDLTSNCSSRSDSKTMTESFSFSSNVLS

[8] = test system: Gerbillinae; test: In-vivo receptor occupancy at SERT in gerbil at 30 mg/kg, po measured after 4 hrs; assay type: functional
[9] = test system: Gerbillinae; test: Inhibition of foot tapping in gerbil foot tap model at 10 mg/kg, po and treated with 3 pmol, icv GR-73632 and measured for 5 mins after animal regains righting reflex; assay type: functional
[10] = test system: Gerbillinae; test: In-vivo receptor occupancy at NK1 receptor in gerbil at 3 to 30 mg/kg, po measured after 4 hrs; assay type: functional
[11] = Ratio of drug concentration in brain to plasma of gerbil foot tap model at 10 mg/kg, po; assay type: ADME, organism-based; settings: gerbillinae, read-out: BPR
[12] = test system: Gerbillinae; test: In-vivo receptor occupancy at SERT in gerbil at 3 to 30 mg/kg, po measured after 4 hrs; assay type: functional, organism-based

N#Cc1cc(F)c(-c2cc(COCC3(c4ccccc4)CCNCC3)cc(C(F)(F)F)c2)cc1F
Ratio IC50 [1]: 4
IC50 [2]: 3.7 nM
IC50 [3]: 0.91 nM

Cc1ccccc1-c1cc(COCC2(c3ccccc3)CCNCC2)cc(C(F)(F)F)c1
Ratio IC50 [1]: 0.1
IC50 [2]: 13 nM
IC50 [3]: 130 nM

FC(F)(F)c1cc(COCC2(c3ccccc3)CCNCC2)cc(-c2cccc3ccccc23)c1
Ratio IC50 [1]: 0.2
IC50 [2]: 120 nM
IC50 [3]: 540 nM

Cn1nnnc1-c1cc(COCC2(c3ccccc3)CCNCC2)cc(C(F)(F)F)c1
Ratio IC50 [1]: 0.8
IC50 [2]: 50 nM
IC50 [3]: 65 nM

FC(F)(F)c1cc(COCC2(c3ccccc3)CCNCC2)cc(-c2nccs2)c1
Ratio IC50 [1]: 0.06
IC50 [2]: 4.1 nM
IC50 [3]: 70 nM

Fc1ccccc1-c1cc(COCC2(c3ccccc3)CCNCC2)cc(C(F)(F)F)c1
Ratio IC50 [1]: 0.3
IC50 [2]: 7.6 nM
IC50 [3]: 23 nM

N#Cc1ccc(-c2cc(COCC3(c4ccccc4)CCN(C4CC4)CC3)cc(C(F)(F)F)c2)cc1
Ratio IC50 [1]: 1200
IC50 [2]: 2100 nM
IC50 [3]: 1.8 nM

COc1ccc(-n2nnnc2C(F)(F)F)cc1CO[C@H]1CCCN[C@H]1c1ccccc1
IC50 [3]: 0.03 nM

CC(C)N1CCC(COCc2cc(-c3ccc(C#N)cc3)cc(C(F)(F)F)c2)(c2ccccc2)CC1
Ratio IC50 [1]: 1200
IC50 [2]: 450 nM
IC50 [3]: 0.39 nM

Cc1cccc(-c2cc(COCC3(c4ccccc4)CCNCC3)cc(C(F)(F)F)c2)c1
Ratio IC50 [1]: 0.6
IC50 [2]: 14 nM
IC50 [3]: 24 nM

FC(F)(F)c1cc(COCC2(c3ccccc3)CCNCC2)cc(-c2ccccn2)c1
Ratio IC50 [1]: 0.2
IC50 [2]: 7.4 nM
IC50 [3]: 41 nM

N#Cc1ccc(-c2cc(COCC3(c4ccccc4)CCN(Cc4ccccc4)CC3)cc(C(F)(F)F)c2)cc1
Ratio IC50 [1]: 400
IC50 [2]: 800 nM
IC50 [3]: 2 nM

N#Cc1ccc(-c2cc(COCC3(c4ccccc4)CCNCC3)cc(C(F)(F)F)c2)cc1Cl
Ratio IC50 [1]: 3
IC50 [2]: 3.1 nM
IC50 [3]: 1.1 nM

Nc1cccc(-c2cc(COCC3(c4ccccc4)CCNCC3)cc(C(F)(F)F)c2)c1
Ratio IC50 [1]: 1
IC50 [2]: 30 nM
IC50 [3]: 25 nM

FC(F)(F)c1cc(COCC2(c3ccccc3)CCNCC2)cc(-c2ccncc2)c1
Ratio IC50 [1]: 10
IC50 [2]: 16 nM
IC50 [3]: 1.6 nM

O=[N+]([O-])c1ccccc1-c1cc(COCC2(c3ccccc3)CCNCC2)cc(C(F)(F)F)c1
Ratio IC50 [1]: 0.5
IC50 [2]: 3.5 nM
IC50 [3]: 6.5 nM

Fc1cccc(-c2cc(COCC3(c4ccccc4)CCNCC3)cc(C(F)(F)F)c2)c1
Ratio IC50 [1]: 1
IC50 [2]: 6.3 nM
IC50 [3]: 5 nM

Fc1ccc(-c2cc(COCC3(c4ccccc4)CCNCC3)cc(C(F)(F)F)c2)cc1
Ratio IC50 [1]: 0.7
IC50 [2]: 1.5 nM
IC50 [3]: 2.2 nM

COc1ccc(-n2nnnc2C)cc1CO[C@H]1CCCN[C@H]1c1ccccc1
IC50 [3]: 0.05 nM

FC(F)(F)c1ccc(-c2cc(COCC3(c4ccccc4)CCNCC3)cc(C(F)(F)F)c2)cc1
Ratio IC50 [1]: 1
IC50 [2]: 36 nM
IC50 [3]: 30 nM

FC(F)(F)c1cc(COCC2(c3ccccc3)CCNCC2)cc(-c2ccco2)c1
Ratio IC50 [1]: 0.4
IC50 [2]: 18 nM
IC50 [3]: 47 nM

N#Cc1ccc(-c2cc(COCC3(c4ccccc4)CCNCC3)cc(C(F)(F)F)c2)cc1F
Ratio IC50 [1]: 8
IC50 [2]: 8.9 nM
IC50 [3]: 1.1 nM

CCOc1ccc(-c2cc(COCC3(c4ccccc4)CCNCC3)cc(C(F)(F)F)c2)cc1
Ratio IC50 [1]: 4
IC50 [2]: 14 nM
IC50 [3]: 3.4 nM

FC(F)(F)c1cc(COCC2(c3ccccc3)CCNCC2)cc(-c2ccccc2)c1
Ratio IC50 [1]: 0.6
IC50 [2]: 3.7 nM
IC50 [3]: 6.3 nM

FC(F)(F)c1cc(COCC2(c3ccccc3)CCNCC2)cc(-c2nnn[nH]2)c1
Ratio IC50 [1]: 0.04
IC50 [2]: 8.6 nM
IC50 [3]: 200 nM

O=[N+]([O-])c1cccc(-c2cc(COCC3(c4ccccc4)CCNCC3)cc(C(F)(F)F)c2)c1
Ratio IC50 [1]: 0.8
IC50 [2]: 4.2 nM
IC50 [3]: 5.2 nM

CN(C)c1ccc(-c2cc(COCC3(c4ccccc4)CCNCC3)cc(C(F)(F)F)c2)cc1
Ratio IC50 [1]: 0.2
IC50 [2]: 3.5 nM
IC50 [3]: 18 nM

N#Cc1c(F)cc(-c2cc(COCC3(c4ccccc4)CCNCC3)cc(C(F)(F)F)c2)cc1F
Ratio IC50 [1]: 22
IC50 [2]: 7 nM
IC50 [3]: 0.32 nM

Oc1ccc(-c2cc(COCC3(c4ccccc4)CCNCC3)cc(C(F)(F)F)c2)cc1
Ratio IC50 [1]: 8
IC50 [2]: 27 nM
IC50 [3]: 3.6 nM

FC(F)(F)c1cc(COCC2(c3ccccc3)CCNCC2)cc(-c2ccc3ccccc3c2)c1
Ratio IC50 [1]: 0.9
IC50 [2]: 110 nM
IC50 [3]: 120 nM

O=[N+]([O-])c1ccc(-c2cc(COCC3(c4ccccc4)CCNCC3)cc(C(F)(F)F)c2)cc1
Ratio IC50 [1]: 2
IC50 [2]: 7.3 nM
IC50 [3]: 3.8 nM

FC(F)(F)c1cc(COCC2(c3ccccc3)CCNCC2)cc(-c2ccccc2Cl)c1
Ratio IC50 [1]: 0.1
IC50 [2]: 6.4 nM
IC50 [3]: 68 nM

CN1CCC(COCc2cc(-c3ccc(C#N)cc3)cc(C(F)(F)F)c2)(c2ccccc2)CC1
Ratio IC50 [1]: 33
IC50 [2]: 9.5 nM
concentration [4]: 1300 nM
Occ [5]: 11%
IC50 [3]: 0.29 nM
concentration [6]: 526 nM
IC50 [7]: 0.2 nM
Occ [8]: 84%
inhibition in vivo at 10 mg/kg [9]: 73%
Occ [10]: 88%
Kp [11]: 2.5
Occ [12]: Dose-dependent effect

Cc1cc(-c2cc(COCC3(c4ccccc4)CCNCC3)cc(C(F)(F)F)c2)ccc1C#N
Ratio IC50 [1]: 2
IC50 [2]: 2.7 nM
IC50 [3]: 1.2 nM

CCN1CCC(COCc2cc(-c3ccc(C#N)cc3)cc(C(F)(F)F)c2)(c2ccccc2)CC1
Ratio IC50 [1]: 1700
IC50 [2]: 420 nM
IC50 [3]: 0.25 nM

N#Cc1ccc(-c2cc(COCC3(c4ccccc4)CCNCC3)cc(C(F)(F)F)c2)nc1
Ratio IC50 [1]: 0.5
IC50 [2]: 4 nM
IC50 [3]: 8.1 nM

Oc1cccc(-c2cc(COCC3(c4ccccc4)CCNCC3)cc(C(F)(F)F)c2)c1
Ratio IC50 [1]: 2
IC50 [2]: 27 nM
IC50 [3]: 13 nM

COc1ccc(-c2cc(COCC3(c4ccccc4)CCNCC3)cc(C(F)(F)F)c2)cc1
Ratio IC50 [1]: 16
IC50 [2]: 15 nM
IC50 [3]: 0.93 nM

Cc1nnnn1-c1cc(COCC2(c3ccccc3)CCNCC2)cc(C(F)(F)F)c1
Ratio IC50 [1]: 0.4
IC50 [2]: 70 nM
IC50 [3]: 180 nM

FC(F)(F)c1cc(COCC2(c3ccccc3)CCNCC2)cc(-c2ccc(Cl)cc2)c1
Ratio IC50 [1]: 0.6
IC50 [2]: 1.8 nM
IC50 [3]: 2.8 nM

Cc1ccc(-c2cc(COCC3(c4ccccc4)CCNCC3)cc(C(F)(F)F)c2)cc1
Ratio IC50 [1]: 0.8
IC50 [2]: 6.4 nM
IC50 [3]: 8.4 nM

COC(=O)c1ccc(-c2cc(COCC3(c4ccccc4)CCNCC3)cc(C(F)(F)F)c2)cc1
Ratio IC50 [1]: 1
IC50 [2]: 25 nM
IC50 [3]: 17 nM

Cn1nnc(-c2cc(COCC3(c4ccccc4)CCNCC3)cc(C(F)(F)F)c2)n1
Ratio IC50 [1]: 0.3
IC50 [2]: 9.6 nM
IC50 [3]: 36 nM

N#Cc1c(F)c(F)c(-c2cc(COCC3(c4ccccc4)CCNCC3)cc(C(F)(F)F)c2)c(F)c1F
Ratio IC50 [1]: 10
IC50 [2]: 47 nM
IC50 [3]: 4.8 nM

C[C@@H](O[C@H]1OCCN(Cc2n[nH]c(=O)[nH]2)[C@H]1c1ccc(F)cc1)c1cc(C(F)(F)F)cc(C(F)(F)F)c1 [APREPITANT]
IC50 [3]: 0.09 nM

N#Cc1ccc(-c2cc(COCC3(c4ccccc4)CCNCC3)cc(C(F)(F)F)c2)cn1
Ratio IC50 [1]: 5
IC50 [2]: 10 nM
IC50 [3]: 1.9 nM

N#Cc1ccc(-c2cc(COCC3(c4ccccc4)CCNCC3)cc(C(F)(F)F)c2)cc1
Ratio IC50 [1]: 9
IC50 [2]: 4 nM
concentration [4]: 190 nM
IC50 [3]: 0.45 nM
concentration [6]: 365 nM
IC50 [7]: 0.59 nM
inhibition in vivo at 10 mg/kg [9]: 29%
Kp [11]: 0.52

COc1ccc(-n2cnnn2)cc1CO[C@H]1CCCN[C@H]1c1ccccc1
IC50 [3]: 0.05 nM

N#Cc1cccc(-c2cc(COCC3(c4ccccc4)CCNCC3)cc(C(F)(F)F)c2)c1
Ratio IC50 [1]: 0.2
IC50 [2]: 10 nM
IC50 [3]: 49 nM

COc1ccccc1-c1cc(COCC2(c3ccccc3)CCNCC2)cc(C(F)(F)F)c1
Ratio IC50 [1]: 0.1
IC50 [2]: 4.2 nM
IC50 [3]: 54 nM

FC(F)(F)c1cc(COCC2(c3ccccc3)CCNCC2)cc(-c2ccc3c(c2)OCO3)c1
Ratio IC50 [1]: 6
IC50 [2]: 45 nM
IC50 [3]: 7.1 nM

COc1ccc(-n2nnnc2C)cc1COCC1(c2ccccc2)CCNCC1
Ratio IC50 [1]: 0.4
IC50 [2]: 37 nM
IC50 [3]: 87 nM

FC(F)(F)c1cc(COCC2(c3ccccc3)CCNCC2)cc(-n2nnnc2C(F)(F)F)c1
Ratio IC50 [1]: 0.08
IC50 [2]: 57 nM
IC50 [3]: 700 nM
